{"source": "patent US12070440B2", "about": "“Topical formulations of nitroglycerin” (PERMEATUS, INC., priority 2022, dated 2024)", "origin": "cited, not measured here", "note": "Like-named read-outs stand apart in the source and are kept apart here.", "data": [{"molecule": "O=[N+]([O-])OCC(CO[N+](=O)[O-])O[N+](=O)[O-]", "note": "[nitroglycerin, 1,2,3-trinitroxypropane]", "values": [{"measurement": "decomposition by denitration to 1,2-GDN", "setting": "acidic environment (0.1N HCl)", "value": "faster"}, {"measurement": "decomposition by denitration to 1,2-GDN", "setting": "pH 7.4", "value": "slow"}, {"measurement": "decomposition by denitration to 1,2-GDN", "setting": "pH values of 11 and above", "value": "rapid"}]}]}
